This is an account of results in patent US20250326739A1, “CD38 MODULATORS AND USES THEREOF” (Aeovian Pharmaceuticals, Inc., priority 2022, published 2025).

One test addresses human CD38 (Homo sapiens (Human), UniProt P28907). The test is described as follows: NAD+ cyclase activity assay with human recombinant CD38 protein. Particulars: 1.9 nM human CD38, 15.8 μM e-NAD substrate, fluorescence read-out. The format is biochemical. The procedure:
(§1) Example 5: NAD^+ Cydase Activity Assay with Human or Mouse Recombinant CD38 Protein
(§2) The following assay was used to determine the ability of compounds of the invention to inhibit the hydrolysis of NAD^+ by the human or mouse enzyme, CD38.
(§3) Reaction buffer: 40 mM HEPES/NaOH pH 7.5, 250 mM sucrose, 0.01% Tween
(§4) Final concentrations: 0.6 nM mouse CD38 (4947-AC, Bio-Techne GmbH) 1.9 nM human CD38 (AVI2404, Bio-Techne GmbH)
(§5) Substrate: 15.8 μM Nicotinamide 1,N6-ethenoadenine dinucleotide (E-NAD)
(§6) Read-out: Fluorescence intensity (extinction 300 nm/emission 410 nm)
(§7) Required reaction buffer, required CD38 concentration in reaction buffer and required e-NAD concentration in reaction buffer were prepared. Thereafter, 8 μL of CD38 in reaction buffer were added to High Control and compound concentration wells in 384 well plate (Corning #4514, 384 well, nonbinding surface, low volume, round bottom) and 8 μL of reaction buffer to Low Control. Compound dilutions were transferred via pintool technology that transfers 42.5 nL compound dilutions (12-point dose-response with factor three dilutions in 100% DMSO) well-to-well. Plate was subsequently shaken for 15 s at 1450 rpm and sealed for incubation for 30 min at room temperature. Thereafter, 2 μL of e-NAD in reaction buffer were added with Integra Voyager. After shaking for 15 s at 1450 rpm, plate was sealed, and assay signal was measured continuously with PHERAstar® fluorescence intensity module (extinction 300 nm/emission 410 nm).
(§8) Dose-response curves were constructed using twelve-point factor three dilutions in triplicates per plate. High control (full enzyme activity) was set to assay signal of CD38 and e-NAD in presence of vehicle (DMSO) and Low control (full enzyme inhibition) was set to assay signal of e-NAD and vehicle (DMSO) in absence of CD38. For data analysis, fluorescent signal of traces corresponding to each compound concentration and High and Low control was monitored over time. Each run, High Control (full enzyme activity) was fitted to Linear equation via GraphPad Prism to determine CD38 activity from the slope and determine the time interval of linear phase of reaction to account for minor fluctuations. Thereafter, slopes of all compound concentrations were determined via fitting to same linear equation (GraphPad Prism) over the same time interval as determined for High control. Percentage inhibition was calculated via normalization to High and Low Control via the equation: %−inhibition=100*(1−((Sample−Low control)/(High control−Low control))) Half maximal inhibitory concentration (IC50) values are yielded from the inflection point of the corresponding curve by fitting of resulting percentage inhibition values to standard equation (4 Parameter Logistic Model or Sigmoidal Dose-Response Model) via Excel Fit. Unless otherwise stated, fitting of curves was fixed to 100%-inhibition and unlocked for 0%-inhibition.

In another test the target is mouse CD38 (Mus musculus (Mouse), UniProt P56528). Put plainly: NAD+ cyclase activity assay with mouse recombinant CD38 protein. The format is biochemical. Particulars: 0.6 nM mouse CD38, 15.8 μM e-NAD substrate, fluorescence read-out. The procedure:
as §1, §2, §3, §4, §5, §6, §7, §8

pIC50: −log10 of the molar value. Where a name gives a salt, the structure may show the parent alone.

Chain of mouse CD38 (P56528 whole entry): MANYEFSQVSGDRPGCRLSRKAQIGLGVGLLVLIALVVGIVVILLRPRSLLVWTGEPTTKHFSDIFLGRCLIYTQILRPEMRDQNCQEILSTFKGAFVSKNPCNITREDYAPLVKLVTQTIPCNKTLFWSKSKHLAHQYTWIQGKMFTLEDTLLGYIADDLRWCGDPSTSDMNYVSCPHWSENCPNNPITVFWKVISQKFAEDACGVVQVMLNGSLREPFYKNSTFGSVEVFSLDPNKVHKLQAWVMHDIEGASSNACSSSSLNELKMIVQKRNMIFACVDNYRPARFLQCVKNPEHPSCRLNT
Chain of human CD38 (P28907 whole entry): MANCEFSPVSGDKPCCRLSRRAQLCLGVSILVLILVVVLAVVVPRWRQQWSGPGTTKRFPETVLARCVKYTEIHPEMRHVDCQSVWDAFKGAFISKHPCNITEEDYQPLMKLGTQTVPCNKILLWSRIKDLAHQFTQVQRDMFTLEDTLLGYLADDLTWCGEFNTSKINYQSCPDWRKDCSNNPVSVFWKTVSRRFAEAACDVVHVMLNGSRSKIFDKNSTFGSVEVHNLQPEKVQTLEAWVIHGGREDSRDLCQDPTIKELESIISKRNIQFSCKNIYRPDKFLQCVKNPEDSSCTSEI

On to `O=C(N[C@@H]1CCCOC1)c1cc(C(F)(F)F)cc(-n2ccnc2)n1` [Compound 62A, (R)-6-(1H-imidazol-1-yl)-N-(tetrahydro-2H-pyran-3-yl)-4-(trifluoromethyl)picolinamide], for which the pIC50 was above 7.52 on human CD38 and 8.00 to 9.00 on mouse CD38.
In the case of `COCCC(=O)N1CCC(NC(=O)c2cc(C)cc(-n3ccnc3)n2)CC1` [Compound 20A, 6-(1H-Imidazol-1-yl)-N-(1-(3-methoxypropanoyl)piperidin-4-yl)-4-methylpicolinamide], the pIC50 was 7.00 to 7.52 on human CD38 and 8.00 to 9.00 on mouse CD38.
The matching figures for `Cc1cc(C(=O)NC2CCN(S(=O)(=O)C3CC3)CC2)nc(-n2ccnc2)c1` [Compound 3A, N-(1-(cyclopropylsulfonyl)piperidin-4-yl)-6-(1H-imidazol-1-yl)-4-methylpicolinamide]: above 7.52 and 8.00 to 9.00.
As for `Cc1cc(C(=O)NC2CCNCC2)nc(-n2ccnc2)c1` [Compound 11A, 6-(1H-Imidazol-1-yl)-4-methyl-N-(piperidin-4-yl)picolinamide], the values for the negative logarithm of the IC50 (pIC50) on human CD38 and at mouse CD38 were below 6.00 and 8.00 to 9.00, respectively.
For the molecule `Cc1cc(C(=O)N[C@@H]2CCC(=O)NC2=O)nc(-n2ccnc2)c1` [Compound 63A, (R)—N-(2,6-Dioxopiperidin-3-yl)-6-(1H-imidazol-1-yl)-4-methylpicolinamide], the results for the pIC50 at human CD38 and on mouse CD38 were below 6.00 and 7.00 to 8.00, respectively.
As to `Cc1cc(C(=O)N[C@@H]2CCCNC2=O)nc(-n2ccnc2)c1` [Compound 58A, (R)-6-(1H-Imidazol-1-yl)-4-methyl-N-(2-oxopiperidin-3-yl)picolinamide], the pIC50 was below 6.00 on human CD38 and 7.00 to 8.00 on mouse CD38.
The matching figures for `Cc1cc(C(=O)N[C@H]2CCNC2)nc(-n2ccnc2)c1` [Compound 41A, (S)-6-(1H-Imidazol-1-yl)-4-methyl-N-(pyrrolidin-3-yl)picolinamide hydrochloride]: below 6.00 and below 7.00.
The matching figures for `Cc1cc(C(=O)N[C@@H]2CCCOC2)nc(-n2ccnc2)c1` [Compound 44A, (R)-6-(1H-Imidazol-1-yl)-4-methyl-N-(tetrahydro-2H-pyran-3-yl)picolinamide]: above 7.52 and above 9.00.
Consider `Cc1cc(C(=O)N[C@@H]2CCCN(C(=O)OC(C)(C)C)C2)nc(-n2ccnc2)c1` [Compound 49A, tert-Butyl (R)-3-(6-(1H-imidazol-1-yl)-4-methylpicolinamido)piperidine-1-carboxylate], for which the negative logarithm of the IC50 (pIC50) is 7.00 to 7.52 at human CD38 and 8.00 to 9.00 on mouse CD38.
In the same order, the values of `Cc1cc(C(=O)N[C@H]2CCCN(C(=O)OC(C)(C)C)C2)nc(-n2ccnc2)c1` [Compound 47A, tert-Butyl (S)-3-(6-(1H-imidazol-1-yl)-4-methylpicolinamido)piperidine-1-carboxylate] are 6.00 to 7.00 and 8.00 to 9.00.
Turning to `Cc1cc(C(=O)N[C@@H]2CCCOC2)nc(-n2ccnc2)n1` [Compound 69A, (R)-2-(1H-Imidazol-1-yl)-6-methyl-N-(tetrahydro-2H-pyran-3-yl)pyrimidine-4-carboxamide], the pIC50 was above 7.52 on human CD38 and above 9.00 on mouse CD38.
In the case of `Cc1cc(C(=O)N[C@H]2CCCN(S(C)(=O)=O)C2)nc(-n2ccnc2)c1` [Compound 50A, (S)-6-(1H-Imidazol-1-yl)-4-methyl-N-(1-(methylsulfonyl)piperidin-3-yl)picolinamide], the pIC50 on human CD38 is 6.00 to 7.00; on mouse CD38, 8.00 to 9.00.
The matching figures for `Cc1cc(C(=O)NC2CCC(F)(F)CC2)nc(-n2ccnc2)c1` [Compound 8A, N-(4,4-Difluorocyclohexyl)-6-(1H-imidazol-1-yl)-4-methylpicolinamide]: above 7.52 and 8.00 to 9.00.
The matching figures for `Cc1cc(C(=O)NC2CCC(F)(F)C2)nc(-n2ccnc2)c1` (centres unmarked) [Compound 35A, N-(3,3-Difluorocyclopentyl)-6-(1H-imidazol-1-yl)-4-methylpicolinamide]: above 7.52 and 8.00 to 9.00.
With `COc1cc(C(=O)NC2CCN(S(C)(=O)=O)CC2)nc(-n2ccnc2)c1` [Compound 15A, 6-(1H-Imidazol-1-yl)-4-methoxy-N-(1-(methylsulfonyl)piperidin-4-yl)picolinamide], the negative-log IC50 (pIC50) on human CD38 is 7.00 to 7.52; at mouse CD38, 8.00 to 9.00.
The matching figures for `Cc1ccc(-n2ccnc2)nc1C(=O)N[C@@H]1CCCOC1` [Compound 81A, (R)-6-(1H-Imidazol-1-yl)-3-methyl-N-(tetrahydro-2H-pyran-3-yl)picolinamide]: 6.00 to 7.00 and 7.00 to 8.00.
Take `Cc1cc(C(=O)N[C@H]2COCCC2(F)F)nc(-n2ccnc2)c1` [Compound 70A, (S)—N-(4,4-Difluorotetrahydro-2H-pyran-3-yl)-6-(1H-imidazol-1-yl)-4-methylpicolinamide]: the pIC50 at human CD38 was 7.00 to 7.52; on mouse CD38, 8.00 to 9.00.
In the same order, the values of `CS(=O)(=O)N1CCC(NC(=O)c2cc(C(F)(F)F)cc(-n3ccnc3)n2)CC1` [Compound 82A, 6-(1H-Imidazol-1-yl)-N-(1-(methylsulfonyl)piperidin-4-yl)-4-(trifluoromethyl)picolinamide] are above 7.52 and 8.00 to 9.00.
In the same order, the values of `O=C(N[C@@H]1CCS(=O)(=O)C1)c1ccnc(-n2ccnc2)n1` [Compound 74A, (R)—N-(1,1-Dioxidotetrahydrothiophen-3-yl)-2-(1H-imidazol-1-yl)pyrimidine-4-carboxamide] are above 7.52 and 8.00 to 9.00.
Take `O=C(N[C@@H]1CCCOC1)c1cc(C(F)(F)F)nc(-n2ccnc2)n1` [Compound 76A, (R)-2-(1H-Imidazol-1-yl)-N-(tetrahydro-2H-pyran-3-yl)-6-(trifluoromethyl)pyrimidine-4-carboxamide]: the negative-log IC50 (pIC50) on human CD38 was 7.00 to 7.52; at mouse CD38 it was 8.00 to 9.00.
The matching figures for `CCS(=O)(=O)N1CCC(NC(=O)c2cc(C)cc(-n3ccnc3)n2)CC1` [Compound 2A, N-(1-(Ethylsulfonyl)piperidin-4-yl)-6-(1H-imidazol-1-yl)-4-methylpicolinamide]: above 7.52 and 8.00 to 9.00.
Regarding `CNC(=O)N1CCC(NC(=O)c2cc(C)cc(-n3ccnc3)n2)CC1` [Compound 22A, 6-(1H-Imidazol-1-yl)-4-methyl-N-(1-(methylcarbamoyl)piperidin-4-yl)picolinamide], the pIC50 is above 7.52 on human CD38 and 8.00 to 9.00 at mouse CD38.
In the case of `Cc1cc(C(=O)NC2CCC(C)(C)OC2)nc(-n2ccnc2)c1` (centres unmarked) [Compound 29A, N-(6,6-Dimethyltetrahydro-2H-pyran-3-yl)-6-(1H-imidazol-1-yl)-4-methylpicolinamide], the pIC50 at human CD38 is 7.00 to 7.52; at mouse CD38, 8.00 to 9.00.
In the same order, the values of `Cc1cc(C(=O)NC2CCC2)nc(-n2ccnc2)c1` [Compound 12A, N-Cyclobutyl-6-(1H-imidazol-1-yl)-4-methylpicolinamide] are 7.00 to 7.52 and 8.00 to 9.00.
Turning to `Cc1cc(C(=O)NC2COCC(F)(F)C2)nc(-n2ccnc2)c1` (centres unmarked) [Compound 26A, N-(5,5-Difluorotetrahydro-2H-pyran-3-yl)-6-(1H-imidazol-1-yl)-4-methylpicolinamide], the pIC50 is 7.00 to 7.52 at human CD38 and 8.00 to 9.00 on mouse CD38.
The matching figures for `CC(=O)N1CCC(NC(=O)c2cc(C)cc(-n3ccnc3)n2)CC1` [Compound 10A, N-(1-Acetylpiperidin-4-yl)-6-(1H-imidazol-1-yl)-4-methylpicolinamide]: 7.00 to 7.52 and 8.00 to 9.00.
For the molecule `Cc1cc(C(=O)N[C@@H]2CCN(C(=O)OC(C)(C)C)C2)nc(-n2ccnc2)c1` [Compound 43A, tert-Butyl (R)-3-(6-(1H-imidazol-1-yl)-4-methylpicolinamido)pyrrolidine-1-carboxylate], the pIC50 at human CD38 is above 7.52; on mouse CD38, 8.00 to 9.00.
On to `Cc1cc(C(=O)NC2CCOC(C)(C)C2)nc(-n2ccnc2)c1` (centres unmarked) [Compound 24A, N-(2,2-Dimethyltetrahydro-2H-pyran-4-yl)-6-(1H-imidazol-1-yl)-4-methylpicolinamide], for which the pIC50 at human CD38 was 6.00 to 7.00; on mouse CD38, 8.00 to 9.00.
